Test results: ChEMBL document CHEMBL5335768, “Expanding the knowledge around antitubercular 5-(2-aminothiazol-4-yl)isoxazole-3-carboxamides: Hit-to-lead optimization and release of a novel antitubercular chemotype via scaffold derivatization” (Eur J Med Chem, 2023)

How the values were obtained:
[1] = system: Mycobacterium tuberculosis; assay: Antitubercular activity against STR/INH/RIF/EMB/ETH-resistant Mycobacterium tuberculosis IC1 assessed as inhibition of bacterial growth measured after 3 weeks by broth microdilution method; type: functional; details: IC1, 504 h
[2] = system: Mycobacterium tuberculosis; assay: microbe, parasite or virus in culture; details: IC2, 504 h

NNC(=O)c1ccncc1 [ISONIAZID]
MIC90 [1]: > 0.2 µg/mL | MIC90 [2]: > 0.2 µg/mL
